Experiment [1] concerns Human immunodeficiency virus 1. In kind it is functional, organism-based. As to conditions: Human immunodeficiency virus 1, BaL (subtype B, R5), CEMx174 5.25M7, 144 h.
In experiment [2] the test system is Human immunodeficiency virus 1. In kind it is functional, organism-based, D36G. As to conditions: cemx174 5.25m7.
The test system of experiment [3] is Human immunodeficiency virus 1. In kind it is functional, organism-based, V38E/N42S. As to conditions: cemx174 5.25m7.
The test system of experiment [4] is Human immunodeficiency virus 1. Format: functional, organism-based, N427/N43K. As to conditions: cemx174 5.25m7.
Experiment [5] concerns Human immunodeficiency virus 1. Format: functional, organism-based, V38A/N427. As to conditions: cemx174 5.25m7.

Residues, ends and D or L forms follow the SMILES beside them. Groups on a side chain read outwards from the residue. *: point of attachment. X1 = CC(=O)N1CCC(C(=O)N(CCCN2CCC(Cc3ccc(C(=O)*)cc3)CC2)c2ccc(C)c(Cl)c2)CC1; PEG12 = NCCOCCOCCOCCOCCOCCOCCOCCOCCOCCOCCOCCOCCC(=O)O

For enfuvirtide, the EC50 in experiment [1] worked out at 0.00158 µM; in experiment [2] it was 0.00431 µM; in experiment [3], 0.261 µM; in experiment [4] it was 0.673 µM; in experiment [5], 0.656 µM.
In experiment [1], `CC[C@H](C)[C@H](NC(=O)[C@H](CC(C)C)NC(=O)[C@H](CO)NC(=O)[C@H](Cc1cnc[nH]1)NC(=O)[C@@H](NC(=O)[C@H](CC(C)C)NC(=O)[C@H](CO)NC(=O)[C@@H](NC(=O)[C@H](Cc1ccc(O)cc1)NC(=O)[C@H](CC(N)=O)NC(=O)[C@H](CC(N)=O)NC(C)=O)[C@@H](C)O)[C@@H](C)CC)C(=O)N[C@@H](CCC(=O)O)C(=O)N[C@@H](CCC(=O)O)C(=O)N[C@@H](CO)C(=O)N[C@@H](CCC(N)=O)C(=O)N[C@@H](CC(N)=O)C(=O)N[C@@H](CCC(N)=O)C(=O)N[C@@H](CCC(N)=O)C(=O)N[C@@H](CCC(=O)O)C(=O)N[C@@H](CCCCN)C(=O)N[C@@H](CC(N)=O)C(=O)N[C@@H](CCC(=O)O)C(=O)N[C@@H](CCC(N)=O)C(=O)N[C@@H](CCC(=O)O)C(=O)N[C@@H](CC(C)C)C(=O)N[C@@H](CC(C)C)C(=O)N[C@@H](CCCCNC(=O)CCOCCOCCOCCOCCOCCOCCOCCOCCOCCOCCOCCOCCNC(=O)c1ccc(CC2CCN(CCCN(C(=O)C3CCN(C(C)=O)CC3)c3ccc(C)c(Cl)c3)CC2)cc1)C(N)=O` (Ac-NNYTSLIHSLIEESQNQQEKNEQELLK([PEG12-X1])-NH2) returned a concentration giving a half-maximal response (EC50) above 0.05 µM.

In general, EC50 refers to the concentration needed to bring the measured effect to its halfway point. Low readings indicate higher potency in that assay, high ones lower potency in that assay.

(Values after ChEMBL document CHEMBL5030519, “A "Two-Birds-One-Stone" Approach toward the Design of Bifunctional Human Immunodeficiency Virus Type 1 Entry Inhibitors Targeting the CCR5 Coreceptor and gp41 N-Terminal Heptad Repeat Region” (J Med Chem, 2021).)
